Measurements as given in patent US10532985B2, “Heterocycle and carbocycle derivatives having TRKA inhibitory activity” (Shionogi & Co., Ltd., priority 2014, dated 2020).

Target: T1, human TrkA (Homo sapiens, UniProt P04629)
T1 construct: purchased Lifetechnologies PV3144
Experiment: Test Example 2: Human TrkA Inhibition Assay
Format: biochemical
Conditions: Test Example 2; human TrkA 2.5 nmol/L, ATP 500 μmol/L, 90 min at room temperature; read-out: TrkA inhibitory activity IC50
Procedure: After the incubation for 90 min at room temperature, ten μL of termination buffer (100 mmol/L HEPES, 40 mmol/L ethylenediaminetetraacetic acid (EDTA), 10 mmol/L magnesium chloride, 0.003 vol % Brij-35, 0.004 vol % Tween20, 1 mmol/L DTT and 0.16 vol % Coating Reagent 3) was added in each well to stop the enzyme reaction. Fluorescent intensities (FI) of phosphorylated and non-phosphorylated fluorescent substrates were measured by LabChip EZReader II (Caliper LifeSciences, Inc.) and conversion ratio (CR) was calculated by the following formula-1. The CR in the well applied with DMSO alone was used as a negative control and the CR in the well without applying TrkA was used as a positive control. The inhibitory effect of each compound on TrkA phosphorylation was calculated by the following formula-2. CR (%)=(FI of phosphorylated substrate/(FI of phosphorylated substrate+FI of non-phosphorylated substrate))×100 (Formula-1) Inhibitory effect on TrkA phosphorylation (%)=(1−(CR in compound treated well−CR in positive control)/(CR in negative control−CR in positive control))×100. (Formula-2)

T1 sequence (P04629 33-796): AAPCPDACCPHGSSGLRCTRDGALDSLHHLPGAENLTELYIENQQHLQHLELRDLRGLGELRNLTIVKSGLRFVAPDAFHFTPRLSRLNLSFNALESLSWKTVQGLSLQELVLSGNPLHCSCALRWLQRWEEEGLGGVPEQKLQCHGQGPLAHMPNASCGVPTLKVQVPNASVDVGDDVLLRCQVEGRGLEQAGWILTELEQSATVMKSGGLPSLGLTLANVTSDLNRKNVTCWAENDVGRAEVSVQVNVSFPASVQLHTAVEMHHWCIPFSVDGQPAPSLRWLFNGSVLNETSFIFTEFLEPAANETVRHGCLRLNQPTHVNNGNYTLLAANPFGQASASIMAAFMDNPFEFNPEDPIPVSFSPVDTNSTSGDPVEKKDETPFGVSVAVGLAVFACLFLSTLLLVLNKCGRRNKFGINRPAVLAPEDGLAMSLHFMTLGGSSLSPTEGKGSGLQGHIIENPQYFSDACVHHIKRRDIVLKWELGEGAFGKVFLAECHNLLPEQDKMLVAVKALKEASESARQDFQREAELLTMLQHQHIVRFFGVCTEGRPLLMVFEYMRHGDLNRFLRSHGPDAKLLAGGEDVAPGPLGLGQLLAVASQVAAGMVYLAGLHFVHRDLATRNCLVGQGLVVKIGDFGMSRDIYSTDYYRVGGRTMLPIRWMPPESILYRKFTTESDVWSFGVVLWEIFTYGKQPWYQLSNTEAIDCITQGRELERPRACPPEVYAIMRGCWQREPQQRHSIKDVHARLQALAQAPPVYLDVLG

IC50 [nM]	SMILES
34	COCC(Cn1cccn1)N1C[C@@H](NC(=O)Nc2c(C)c(-c3cnn(C)c3)nn2-c2ccccc2)[C@H](c2ccc(F)c(F)c2)C1 (some centres unmarked) [Compound I-100]
480	COCCC1(C)C[C@@H](NC(=O)Nc2c(C)c(-c3cnn(C)c3)nn2-c2ccccc2)[C@H](c2ccccc2)C1 (some centres unmarked) [Compound I-132]
1100	COCCN1C[C@@H](NC(=NS(C)(=O)=O)Nc2c(C)c(-c3cnn(C)c3)nn2-c2ccccc2)[C@H](c2ccccc2)C1 [Compound I-141]
79	COCC(CN1CC(F)(F)C1)N1C[C@@H](NC(=O)Nc2c(C)c(-c3cnn(C)c3)nn2-c2ccccc2)[C@H](c2ccc(F)c(F)c2)C1 (some centres unmarked) [Compound I-106]

Same assay, conditions: human TrkA inhibition, Test Example 2; class symbols A/B/C; read-out: IC50_nM

SMILES	IC50 [nM]
Cc1c(-c2cnn(C)c2)nn(-c2ccccc2)c1NC(=O)N[C@H]1[C@H](c2ccc(F)c(F)c2)[C@@H]2CC[C@H]1N2 (racemic) [Compound I-68]	> 1000
Cc1c(-c2cnn(C)c2)nn(-c2ccccc2)c1NC(=O)N[C@@H]1CN(C=O)C[C@H]1c1ccc(F)c(F)c1 [Compound I-35]	> 1000
COCCN1C[C@@H](NC(=O)Nc2c(C)c(-c3cnn(C)c3)nn2-c2ccccc2)[C@H](c2cccc(/C=C/c3ccccc3)c2)C1 (racemic) [Compound I-49]	< 100
Cc1c(-c2cnn(C)c2)nn(-c2ccccc2)c1NC(=O)N[C@@H]1CN(CCOc2ccccc2)C[C@H]1c1ccc(F)c(F)c1 [Compound I-23]	100 to 1000
COCCN1CCC(c2ccc(F)c(F)c2)C(NC(=O)Nc2c(C)c(-c3cnn(C)c3)nn2-c2ccccc2)C1 (centres unmarked) [Compound I-4]	> 1000
COCCN1[C@@H]2CCC[C@H]1[C@@H](c1ccc(F)c(F)c1)[C@@H]2NC(=O)Nc1c(C)c(-c2cnn(C)c2)nn1-c1ccccc1 (racemic) [Compound I-12]	> 1000
Cc1c(-c2cnn(C)c2)nn(-c2ccccc2)c1NC(=O)N[C@@H]1CN(CCS(C)(=O)=O)C[C@H]1c1ccc(F)c(F)c1 [Compound I-46]	> 1000
Cc1c(-c2cnn(C)c2)nn(-c2ccccc2)c1NC(=O)N[C@@H]1CN(CCNS(C)(=O)=O)C[C@H]1c1ccc(F)c(F)c1 [Compound I-42]	100 to 1000
COCC(=O)N1C[C@@H](NC(=O)Nc2c(C)c(-c3cnn(C)c3)nn2-c2ccccc2)[C@H](c2ccc(F)c(F)c2)C1 [Compound I-26]	> 1000
Cc1c(-c2cnn(C)c2)nn(-c2ccccc2)c1NC(=O)N[C@@H]1CN(CC2CCCCO2)C[C@H]1c1ccc(F)c(F)c1 (some centres unmarked) [Compound I-43]	> 1000
COC(=O)[C@@H]1C[C@@H](NC(=O)Nc2c(C)c(-c3cnn(C)c3)nn2-c2ccccc2)[C@H](c2ccc(F)c(F)c2)N1 (racemic) [Compound I-47]	> 1000

Further lines, results first:

IC50 [nM]	SMILES
< 100	Cc1c(-c2cnn(C)c2)nn(-c2ccccc2)c1NC(=O)N[C@@H]1CN(Cc2ccc(C#N)o2)C[C@H]1c1ccc(F)c(F)c1 [Compound I-89]
100 to 1000	COCC(CN1CCC1)N1C[C@@H](NC(=O)Nc2c(C)c(-c3cnn(C)c3)nn2-c2ccccc2)[C@H](c2ccc(F)c(F)c2)C1 (some centres unmarked) [Compound I-119]
100 to 1000	COCC(Cn1ccnc1)N1C[C@@H](NC(=O)Nc2c(C)c(-c3cnn(C)c3)nn2-c2ccccc2)[C@H](c2ccc(F)c(F)c2)C1 (some centres unmarked) [Compound I-127]
100 to 1000	Cc1c(-c2cnn(C)c2)nn(-c2ccccc2)c1NC(=O)N[C@@H]1CN(CC2CC2)C[C@H]1c1ccc(F)c(F)c1 [Compound I-66]
> 1000	Cc1c(-c2cnn(C)c2)nn(-c2ccccc2)c1NC(=O)N[C@@H]1CN(c2nnn(C)n2)C[C@H]1c1ccc(F)c(F)c1 [Compound I-151]
< 100	COCC(C[n+]1ccccc1)N1C[C@@H](NC(=O)Nc2c(C)c(-c3cnn(C)c3)nn2-c2ccccc2)[C@H](c2ccc(F)c(F)c2)C1 (some centres unmarked) [Compound I-110]
100 to 1000	COCC(CNC(=O)OC)N1C[C@@H](NC(=O)Nc2c(C)c(-c3cnn(C)c3)nn2-c2ccccc2)[C@H](c2ccc(F)c(F)c2)C1 (some centres unmarked) [Compound I-139]
> 1000	Cc1c(-c2cnn(C)c2)nn(-c2ccccc2)c1NC(=O)N[C@@H]1CN(Cc2nccn2C)C[C@H]1c1ccc(F)c(F)c1 [Compound I-159]
